Measurements published in patent US8551984B2, “Aminopyrimidines as SYK inhibitors” (Merck Sharp & Dohme Corp., priority 2009, dated 2013).
pIC50: −log10 of the molar value. Where a name gives a salt, the structure may show the parent alone.

Molecular target: recombinant human SYK (GST-hSYK fusion protein) (Homo sapiens, UniProt P43405)
Experiment: biochemical
[1] = rhSYK Activity (IC50), recombinant human GST-SYK 5 pM, ATP 25 μM, biotinylated substrate peptide 250 nM, HTRF, 10-dose titration

Excerpt: Homogeneous Time-Resolved Fluorescence (HTRF) Assay for the Recombinant Human SYK Enzyme:

Cc1cc(Nc2nccc(C(F)(F)F)n2)cc(-c2cnc(CN3CCOC(CC(=O)O)C3)s2)c1 (stereo not drawn) [Example 88B-14]
pIC50 [1]: > 7.00

Cc1cc(Nc2ncc(Cl)c(C)n2)cc(-c2cnc(C(C)(C)S(N)(=O)=O)s2)c1 [74A-9]
pIC50 (rhSYK Activity, Table 74A): > 7.00

Cc1cc(Nc2nccc(C(F)(F)F)n2)cc(-c2cnc(C3(O)CCN(CC(=O)O)C3)s2)c1 (stereo not drawn) [54B-22]
pIC50 (rhSYK Activity, Table 54B): > 7.00

Cc1cc(Nc2nccc(SC(C)C)n2)cc(-c2cnc(C3(O)CCC3)s2)c1 [Example 108A-43]
pIC50 (rhSYK Activity, Table 108A): > 7.00

Cc1cc(Nc2nccc(OC(C)C)n2)cc(-c2cnc(C3(O)CCC(C(=O)O)CC3)s2)c1 (stereo not drawn) [116A-7]
pIC50 (rhSYK Activity, Table 116A): > 7.00

CC1(C)CC(O)(c2ncc(-c3cc(F)cc(Nc4nccc(C(F)(F)F)n4)c3)s2)CCC1C(=O)O (single isomer, unassigned) [Example 33A-63]
pIC50 (rhSYK Activity, Table 33-A): > 7.00

Cc1cc(Nc2nccc(-c3cnn(CC(C)(C)O)c3)n2)cc(-c2cnc(C3(O)CCC3)s2)c1 [Example 157, 1-{5-[3-({4-[1-(2-hydroxy-2-methylpropyl)-1H-pyrazol-4-yl]pyrimidin-2-yl}amino)-5-methylphenyl]-1,3-thiazol-2-yl}cyclobutanol]
pIC50 [1]: > 7.00

Cc1cc(Nc2nccc(C(F)(F)F)n2)cc(-c2cnc(C3(O)CCNC(=O)CC3)s2)c1Br (single isomer, unassigned) [Example 111-2]
pIC50 [1]: > 7.00

Cc1cc(Nc2nccc(C(F)(F)F)n2)cc(-c2cnc(C3(O)CCC(NC(=O)CC4CCCO4)CC3)s2)c1 (stereo not drawn) [Example 54E-17]
pIC50 (rhSYK Activity, Table 54E): > 7.00

Cc1cc(Nc2nccc(C(F)(F)F)n2)cc(-c2cnc(C3(O)CCCN(C(=O)CCc4cn[nH]c4)CC3)s2)c1 (stereo not drawn) [Example 54D-88]
pIC50 (rhSYK Activity, Table 54D): > 7.00

Cc1cc(Nc2nccc(C(F)(F)F)n2)cc(-c2cnc(C3(c4ccc(C(=O)O)cc4)CC3)s2)c1 [Example 113D-3]
pIC50 (rhSYK Activity, Table 113D, upper part): > 7.00

Cc1cc(Nc2nccc(C(F)(F)F)n2)cc(-c2cnc(C3(O)CCC(NC(=O)C4CCCCO4)CC3)s2)c1 (stereo not drawn) [Example 54E-16]
pIC50 (rhSYK Activity, Table 54E): > 7.00

Cc1cc(Nc2nccc(C3CC3)n2)cc(-c2cnc(C3(O)CCC(C(=O)O)C(C)C3)s2)c1 (stereo not drawn) [Example 113A-22]
pIC50 (rhSYK Activity, Table 113A): > 7.00

CCCCSc1ccnc(Nc2cc(C)cc(-c3cnc(C4(O)CCC4)s3)c2)n1 [Example 108A-41]
pIC50 (rhSYK Activity, Table 108A): 6.00 to 7.00

CC1(C)C[C@@](O)(c2ncc(-c3cc(CNC(N)=O)cc(Nc4nccc(C(F)(F)F)n4)c3)s2)CC[C@@H]1C(=O)O [Example 124, (1S,4R)-4-[5-(3-[(carbamoylamino)methyl]-5-{[4-(trifluoromethyl)pyrimidin-2-yl]amino}phenyl)-1,3-thiazol-2-yl]-4-hydroxy-2,2-dimethylcyclohexanecarboxylic acid]
pIC50 [1]: > 7.00

Cc1cc(Nc2nccc(C(C)C)n2)cc(-c2cnc([C@]3(O)CC[C@@H](C(=O)O)[C@@H](C)C3)s2)c1 [Example 113A-26]
pIC50 (rhSYK Activity, Table 113A): > 7.00

Cc1cc(Nc2nccc(C(F)(F)F)n2)cc(-c2cnc(C3(O)CC4(CC(C(=O)O)C4)C3)s2)c1 (stereo not drawn) [Example 33C-1]
pIC50 (rhSYK Activity, Table 33C): > 7.00

Cc1cc(Nc2nccc(C(F)(F)F)n2)cc(-c2cnc(C3(O)CCC(C(=O)O)C(C)(C)C3C)s2)c1 (stereo not drawn) [Example 33A-75]
pIC50 (rhSYK Activity, Table 33-A): > 7.00

CCC(CO)(CO)C(=O)N1CCCC(O)(c2ncc(-c3cc(C)cc(Nc4nccc(C(F)(F)F)n4)c3)s2)CC1 (stereo not drawn) [Example 54D-102]
pIC50 (rhSYK Activity, Table 54D): > 7.00

Cc1cc(Nc2nccc(C(F)(F)F)n2)cc(-c2cnc(C3(N)CCC3)s2)c1 [Example 61B-1, N-{3-[2-(1-aminocyclobutyl)-1,3-thiazol-5-yl]-5-methylphenyl}-4-(trifluoromethyl)pyrimidin-2-amine]
pIC50 (rhSYK Activity, Table 61B): > 7.00

COC(=O)c1ccc(C(C)(O)c2ncc(-c3cc(C)cc(Nc4nccc(C(F)(F)F)n4)c3)s2)cc1 (stereo not drawn) [Example 33D-17]
pIC50 (rhSYK Activity, Table 33D): > 7.00

Cc1cc(Nc2nccc(C3CC3)n2)cc(-c2cnc(C3(O)CCC3)s2)c1 [Example 56-3]
pIC50 (rhSYK Activity, Table 56): > 7.00

Cc1cc(Nc2nccc(C(F)(F)F)n2)cc(-c2cnc([C@]3(O)CC[C@@H](NC(=O)[C@@H](C)O)CC3)s2)c1 [Example 54E-1]
pIC50 (rhSYK Activity, Table 54E): > 7.00

Cc1cc(Nc2nccc(C#N)n2)cc(-c2cnc(C3(O)CCC3)s2)c1 [Example 100A-7]
pIC50 [1]: > 7.00

Cc1cc(Nc2ncccn2)cc(-c2cnc(C3(O)CCC3)s2)c1 [Example 100A-3]
pIC50 [1]: 6.00 to 7.00

Cc1cc(Nc2nccc(C(F)(F)F)n2)cc(-c2cnc(C3(NS(N)(=O)=O)CCC3)s2)c1 [Example 63-3]
pIC50 (rhSYK Activity, Table 63): > 7.00

Cc1cc(Nc2nccc(C(F)(F)F)n2)cc(-c2cnc(C3(O)CCCN(C(=O)CC4CCOC4)CC3)s2)c1 (stereo not drawn) [Example 54D-67]
pIC50 (rhSYK Activity, Table 54D): > 7.00

Cc1cc(Nc2nccc(C(F)(F)F)n2)cc(-c2cnc(C3(O)CCCN(C(=O)CC(F)(F)F)CC3)s2)c1 (stereo not drawn) [Example 54D-54]
pIC50 (rhSYK Activity, Table 54D): > 7.00

Cc1cc(Nc2nccc(C)n2)cc(-c2cnc(C3(O)CCC(C(=O)O)CC3C)s2)c1 (stereo not drawn) [Example 113A-80]
pIC50 (rhSYK Activity, Table 113A): > 7.00

COC(=O)[C@@H]1CC[C@@](O)(c2ncc(-c3cc(C)cc(Nc4nccc(OC)n4)c3)s2)CC1(C)C [Example 113A-55]
pIC50 (rhSYK Activity, Table 113A): > 7.00

Cc1cc(Nc2nccc(C(F)(F)F)n2)cc(-c2cnc(C(C)NC3CNC(=O)C3)s2)c1 (stereo not drawn) [Example 88A-39]
pIC50 [1]: > 7.00

Cc1cc(Nc2nccc(C(F)(F)F)n2)cc(-c2cnc(CN3CCCC3=O)s2)c1 [Example 92-2]
pIC50 [1]: > 7.00

CC(C)(c1ncc(-c2cccc(Nc3nccc(C(F)(F)F)n3)c2)s1)S(N)(=O)=O [74A-3]
pIC50 (rhSYK Activity, Table 74A): > 7.00

Cc1cc(Nc2nccc(OC3CNC3)n2)cc(-c2cnc(C3(O)CCC3)s2)c1 [Example 93, 1-[5-(3-{[4-(azetidin-3-yloxy)pyrimidin-2-yl]amino}-5-methylphenyl)-1,3-thiazol-2-yl]cyclobutanol]
pIC50 [1]: > 7.00

Cc1cc(Nc2nccc(C(F)(F)F)n2)cc(-c2cnc(C3(C(=O)O)CC3)s2)c1 [Example 84, 1-[5-(3-methyl-5-{[4-(trifluoromethyl)pyrimidin-2-yl]amino}phenyl)-1,3-thiazol-2-yl]cyclopropanecarboxylic acid (TFA salt)]
pIC50 [1]: > 7.00

Cc1cc(Nc2nccc(C(F)(F)F)n2)cc(-c2cnc(CN(C)C(C3CC3)C3CC3)s2)c1 [Example 88A-7]
pIC50 [1]: > 7.00

Cc1cc(Nc2nccc(C(F)(F)F)n2)cc(-c2cnc(C3(O)CCC(CCC(=O)O)CC3)s2)c1 (stereo not drawn) [Example 33A-18]
pIC50 (rhSYK Activity, Table 33-A): > 7.00

Cc1cc(Nc2nccc(OCc3ccccc3)n2)cc(-c2cnc(C(C)(O)C(F)(F)F)s2)c1 (stereo not drawn) [Example 94B-1, 2-[5-(3-{[4-(benzyloxy)pyrimidin-2-yl]-amino}-5-methylphenyl)-1,3-thiazol-2-yl]-1,1,1-trifluoropropan-2-ol]
pIC50 [1]: > 7.00

Cc1cc(Nc2nccc(C(C)O)n2)cc(-c2cnc(C3(O)CCC(C(=O)O)C(C)(C)C3)s2)c1 (single isomer, unassigned) [Example 100A-14]
pIC50 [1]: > 7.00

CCN(C)C(=O)c1ncc(-c2cc(C)cc(Nc3nccc(C(F)(F)F)n3)c2)s1 [Example 87A-28]
pIC50 [1]: 6.00 to 7.00

CCNC(=O)Nc1cc(Nc2nccc(C(F)(F)F)n2)cc(-c2cnc(C3(O)CCC3)s2)c1 [Example 19-1]
pIC50 (rhSYK Activity, table of Examples 19-x): > 7.00

Cc1cc(Nc2nccc(C(F)(F)F)n2)cc(-c2cnc(C3(O)CC(C)C(C(=O)O)C(C)C3)s2)c1 (stereo not drawn) [Example 113B-24]
pIC50 (rhSYK Activity, Table 113B): > 7.00

Cc1cc(Nc2nccc(C(F)(F)F)n2)cc(-c2cnc(C(=O)NCc3cnn(C)c3)s2)c1 [Example 87A-13]
pIC50 [1]: 6.00 to 7.00

Cc1cc(Nc2nccc(C(F)(F)F)n2)cc(-c2cnc(C(NS(N)(=O)=O)(C3CC3)C3CC3)s2)c1 [Example 63-4]
pIC50 (rhSYK Activity, Table 63): > 7.00

Cc1cc(Nc2nccc(C(F)(F)F)n2)cc(-c2cnc(C3(C(=O)OC(C)(C)C)CC3)s2)c1 [Example 83, tert-butyl 1-[5-(3-methyl-5-{[4-(trifluoromethyl)pyrimidin-2-yl]amino}phenyl)-1,3-thiazol-2-yl]cyclopropanecarboxylate]
pIC50 [1]: 6.00 to 7.00

Cc1cc(Nc2nccc(OCC3COCCO3)n2)cc(-c2cnc(C3(O)CCC3)s2)c1 (stereo not drawn) [Example 94A-4]
pIC50 [1]: > 7.00

Cc1cc(Nc2nccc(C(F)(F)F)n2)cc(-c2cnc(C3(O)CCC(CC(=O)O)C3)s2)c1 (single isomer, unassigned) [Example 33B-25]
pIC50 (rhSYK Activity, Table 33B): > 7.00

Cc1cc(Nc2nccc(C)n2)cc(-c2cnc(C3(O)CCC(C(=O)O)C(C)C3C)s2)c1 (stereo not drawn) [Example 113A-66]
pIC50 (rhSYK Activity, Table 113A): > 7.00

Cc1cc(Nc2nccc(C(F)(F)F)n2)cc(-c2cnc(C3(O)CCC(O)C(C)(C)C3)s2)c1 (stereo not drawn) [8A-6]
pIC50 (rhSYK Activity, Table 8A): > 7.00

Cc1cc(Nc2nccc(C(F)(F)F)n2)cc(-c2cnc(C3(O)CCCN(C(=O)c4cc(O)ccn4)CC3)s2)c1 (stereo not drawn) [Example 54D-87]
pIC50 (rhSYK Activity, Table 54D): > 7.00

Cc1cc(Nc2nccc(C(F)(F)F)n2)cc(-c2cnc(C(=O)N3CCC(O)(C(=O)O)CC3)s2)c1 [Example 87B-22]
pIC50 [1]: > 7.00

Cc1cc(Nc2nccc(C(F)(F)F)n2)cc(-c2cnc(CNC(C)(C)CC(C)O)s2)c1 (stereo not drawn) [Example 88A-45]
pIC50 [1]: > 7.00

COc1cnc(Nc2cc(C)cc(-c3cnc(C(C)(O)C(F)(F)F)s3)c2)nc1 (stereo not drawn) [Example 100B-3]
pIC50 [1]: 6.00 to 7.00

CCc1ccnc(Nc2cc(C)cc(-c3cnc(C4(O)CCC(C(=O)O)C(C)C4)s3)c2)n1 (stereo not drawn) [Example 113A-14]
pIC50 (rhSYK Activity, Table 113A): > 7.00

COC(=O)CNS(=O)(=O)C(C)(C)c1ncc(-c2cc(C)cc(Nc3nccc(C(F)(F)F)n3)c2)s1 [74A-14]
pIC50 (rhSYK Activity, Table 74A): > 7.00

COC(=O)CCN1CCC(O)(c2ncc(-c3cc(C)cc(Nc4nccc(C(F)(F)F)n4)c3)s2)CC1 [Example 54A-71]
pIC50 (RHSYK Activity, Table 54A): > 7.00

Cc1cc(Nc2nccc(C(F)(F)F)n2)cc(-c2cnc(C34CCC(C(=O)O3)C(C)(C)C4)s2)c1 (stereo not drawn) [Example 139, Cis-5,5-dimethyl-1-[5-(3-methyl-5-{[4-(trifluoromethyl)pyrimidin-2-yl]amino}phenyl)-1,3-thiazol-2-yl]-2-oxabicyclo[2.2.2]octan-3-one]
pIC50 [1]: 6.00 to 7.00
